Results taken from US11306064B2, “Benzothia(di)azepine compounds and their use as bile acid modulators” (Albireo AB, priority 2018, dated 2022).

Assays:
Human LBAT = target: T1, Human LBAT (Homo sapiens, UniProt Q14973); assay: LBAT (h/m) assay: 3H-taurocholic acid uptake in human LBAT-overexpressing cells; format: cell-based; conditions: 0.3 μM 3H-taurocholic acid and 7.5 μM cold taurocholic acid, 20 minutes, read-out: hLBAT IC50
T1 construct: expressed in transfected cells; kept under Geneticin selection
T1 sequence (Q14973 1-349): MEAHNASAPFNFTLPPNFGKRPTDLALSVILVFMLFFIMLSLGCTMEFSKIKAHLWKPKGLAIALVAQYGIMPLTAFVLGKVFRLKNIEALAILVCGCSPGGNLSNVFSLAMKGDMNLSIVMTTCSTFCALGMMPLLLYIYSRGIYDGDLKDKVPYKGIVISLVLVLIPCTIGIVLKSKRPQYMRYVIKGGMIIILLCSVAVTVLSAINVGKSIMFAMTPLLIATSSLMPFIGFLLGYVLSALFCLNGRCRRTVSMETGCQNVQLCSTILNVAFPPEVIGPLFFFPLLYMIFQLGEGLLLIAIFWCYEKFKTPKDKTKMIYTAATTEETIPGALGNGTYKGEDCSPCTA
Procedure, shortened: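 LBAT-overexpressing cells, serum-free MEM-alpha, 20 min at 37° C with inhibitor (3-fold, 10-point) plus 0.3 μM 3H-taurocholic acid and cold taurocholic acid (7.5 μM human; 25 μM mouse), 0.2% DMSO. Stopped on ice, washed with 1 mM unlabelled taurocholate; uptake by scintillation counting.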

Human ASBT = target: T2, Human ASBT (Homo sapiens, UniProt Q12908); assay: ASBT (h/m) assay: 3H-taurocholic acid uptake in human ASBT-overexpressing cells; format: cell-based; conditions: 0.25 μM 3H-taurocholic acid and 5 μM cold taurocholic acid, 20 minutes, read-out: hASBT IC50
T2 construct: expressed in transfected cells; kept under Puromycin selection
T2 sequence (Q12908 1-348): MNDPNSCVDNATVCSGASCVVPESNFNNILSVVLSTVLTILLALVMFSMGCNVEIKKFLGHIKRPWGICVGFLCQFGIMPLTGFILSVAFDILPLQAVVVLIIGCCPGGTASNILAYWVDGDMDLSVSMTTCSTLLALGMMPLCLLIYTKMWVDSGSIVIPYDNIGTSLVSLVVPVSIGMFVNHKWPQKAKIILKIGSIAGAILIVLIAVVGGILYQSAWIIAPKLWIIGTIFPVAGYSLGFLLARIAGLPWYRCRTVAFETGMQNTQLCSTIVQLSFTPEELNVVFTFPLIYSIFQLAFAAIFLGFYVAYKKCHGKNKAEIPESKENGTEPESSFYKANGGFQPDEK
Procedure, shortened: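 ASBT-overexpressing cells, seeded 48 h earlier, took up 0.25 µM 3H-taurocholic acid plus 5 µM cold taurocholate for 20 min at 37 °C with inhibitor (10-point 3-fold series, top 10 µM, 0.2% DMSO). Ice stop, washes with cold 1 mM taurocholate in HEPES-HBSS pH 7.4, scintillation counting.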

Row | IC50 (Human LBAT) [nM] | IC50 (Human ASBT) [nM] | SMILES
1 | 156 | 57 | CCCCC1(CC)CN(c2ccccc2)c2cc(Br)c(O/C=C/C(=O)O)cc2S(=O)(=O)C1 (single isomer, unassigned) [Example 6, (E)-3-((7-bromo-3-butyl-3-ethyl-1,1-dioxido-5-phenyl-2,3,4,5-tetrahydro-1,5-benzothiazepin-8-yl)oxy)acrylic acid]
2 | 80 | 19 | CCCCC1(CC)CN(c2ccccc2)c2cc(SC)c(O/C=C/C(=O)O)cc2S(=O)(=O)C1 (single isomer, unassigned) [Example 18, (E)-3-((3-butyl-3-ethyl-7-(methylthio)-1,1-dioxido-5-phenyl-2,3,4,5-tetrahydro-1,5-benzothiazepin-8-yl)oxy)acrylic acid]
3 | 8 | 21 | CCCCC1(CC)CN(c2ccccc2)c2cc(SC)c(O/C=C(\F)C(=O)O)cc2S(=O)(=O)C1 (single isomer, unassigned) [Example 43, (Z)-3-((3-butyl-3-ethyl-7-(methylthio)-1,1-dioxido-5-phenyl-2,3,4,5-tetrahydro-1,5-benzothiazepin-8-yl)oxy)-2-fluoroacrylic acid]
4 | 8.1 | 42 | CCCCC1(CC)CN(c2ccccc2)c2cc(Cl)c(O/C=C(\F)C(=O)O)cc2S(=O)(=O)C1 (single isomer, unassigned) [Example 48, (Z)-3-((3-butyl-7-chloro-3-ethyl-1,1-dioxido-5-phenyl-2,3,4,5-tetrahydro-1,5-benzothiazepin-8-yl)oxy)-2-fluoroacrylic acid]
5 | 45 | 48 | CCCCC1(CCCC)CN(c2ccccc2)c2cc(SC)c(O/C=C(\F)C(=O)O)cc2S(=O)(=O)C1 [Example 11, (Z)-3-((3,3-dibutyl-7-(methylthio)-1,1-dioxido-5-phenyl-2,3,4,5-tetrahydro-1,5-benzothiazepin-8-yl)oxy)-2-fluoroacrylic acid]
6 | 9.1 | 257 | CCC1(CC)CN(c2ccccc2)c2cc(SC)c(O/C=C(\F)C(=O)O)cc2S(=O)(=O)C1 [Example 44, (Z)-3-((3,3-diethyl-7-(methylthio)-1,1-dioxido-5-phenyl-2,3,4,5-tetrahydro-1,5-benzothiazepin-8-yl)oxy)-2-fluoroacrylic Acid]
